The values that follow come from article PMC4871627 (Journal of medicinal chemistry, 2016).

One assay has as its target HIV integrase (Human immunodeficiency virus type 1 group M subtype B, UniProt P04585). The assay is described as follows: HIV IN strand transfer. The class given is biochemical, HIV-1. The note with it: INST IC50, tested 0.13-100 µM.
A further assay has as its target HIV RT polymerase (Human immunodeficiency virus type 1 group M subtype B, UniProt P04585). The class given is biochemical, HIV-1. The note with it: RNase H with HTS-1 as substrate.

As usually defined, the IC50 is the midpoint of a concentration-inhibition curve. Lower therefore signals greater potency. At HIV integrase, `COc1cccc(OC)c1-c1cccc(Nc2cc(=O)n(O)c(=O)[nH]2)c1` [11m, 6-((2',6'-Dimethoxy-[1,1'-biphenyl]-3-yl)amino)-3-hydroxypyrimidine-2,4(1H,3H)-dione] had an IC50 of 1200 to 1300 nM.

As to `Cc1ccc(-c2ccc(Nc3cc(=O)n(O)c(=O)[nH]3)cc2)cc1` [11b, 3-Hydroxy-6-((4'-methyl-[1,1'-biphenyl]-4-yl)amino)pyrimidine-2,4(1H,3H)-dione], the “SI (IC50 RT pol / IC50 RNase H)” value on HIV RT polymerase is 5.7 (14).

`COc1ccc(-c2cccc(Nc3cc(=O)n(O)c(=O)[nH]3)c2)c(OC)c1` [11l, 6-((2',4'-Dimethoxy-[1,1'-biphenyl]-3-yl)amino)-3-hydroxypyrimidine-2,4(1H,3H)-dione]: the IC50 against HIV integrase was 1200 to 1300 nM.

On to `O=c1cc(Nc2cccc(-c3ccc(F)cc3)c2)[nH]c(=O)n1O` [11o, 6-((4'-Fluoro-[1,1'-biphenyl]-3-yl)amino)-3-hydroxypyrimidine-2,4(1H,3H)-dione], for which the IC50 against HIV integrase is more than 100000 nM. The “SI (IC50 RT pol / IC50 RNase H)” value at HIV RT polymerase is reported as 6.6 (33).

`COc1ccc(-c2cccc(Nc3cc(=O)n(O)c(=O)[nH]3)c2)cc1` [11j, 3-Hydroxy-6-((4'-methoxy-[1,1'-biphenyl]-3-yl)amino)pyrimidine-2,4(1H,3H)-dione]: the IC50 on HIV integrase is more than 100000 nM. In addition, the “SI (IC50 RT pol / IC50 RNase H)” value at HIV RT polymerase is reported as 6.3 (32).
